Measurements from patent publication US6482799B1, “Self-preserving multipurpose ophthalmic solutions incorporating a polypeptide antimicrobial” (The Regents of the University of California, priority 1999, dated 2002).

What was measured:
[1] = tested on: Escherichia coli (ATCC 8739); assay: Protocol 1 kill curve / MIC, 1 hour at 37° C.; assay type: cell-based; settings: 6.25 μg/ml, 10 mM sodium phosphate buffer
Experimental: This protocol is used to develop dose-response (kill) curves to calculate the minimal inhibitory concentration of an indolicidin (e.g., L-indolicidin (L-IND)) when formulated in a commercially available phosphate buffered saline (PBS) solution. In addition, for comparative purposes, kill curves are established for the following three commonly available commercial lens-care products containing different preservatives:
The stock solutions are diluted in a 2-fold fashion by transferring 1 ml of each stock solution to 1 ml of appropriate diluent in sterile glass tubes (100×13 mm). Twelve additional 2-fold dilutions are made by transferring 1 ml aliquots of each dilution to 1 ml diluent. The diluent for all commercial lens-care products is PBS. […]
Viable counts of the bacteria are performed by 10-fold serial dilutions in sterile PBS and by plating 0.1 ml aliquots on nutrient agar plates. […] The plates are incubated overnight at 37° C. and colonies are counted and recorded. […]
Survival is expressed as number of surviving bacteria (CFU/ml) for each dilution of the test article and control solutions. The lowest dose of the test article that results in complete kill of the test organism, compared to the non-exposed control, is determined to be the MIC value. […]

S. aureus ATCC 6538 = assay: Long-term (8 month) stability in commercial container (Rite-Aid) by S. aureus bioassay; assay type: cell-based, Staphylococcus aureus; settings: 50 μg/ml; for log kill: 4 hours exposure; for stability: 8 months
Experimental: Long term stability of indolicidin was evaluated in a commercial container (Rite-Aid). The L-indolicidin concentration was 50 μg/ml formulated in a 10 mM sodium phosphate buffer, pH 7.4, with and without 0.85% sodium chloride. The test organism was S. aureus ATCC 6538. Sampling time was 0, 1, 2, 3, 4 and 8 months. The exposure time of the test organism was 0 and 4 hours.

[2] = Toxicity study, intraperitoneal administration
Experimental: (§1) The objective of this study was to determine if the treatment regimen proposed for the efficacy study of the defensin formulations caused target organ toxicity. This study is not intended to support application for research or marketing permits for products regulated by governmental agencies. The purpose of this study is to provide range-finding data is therefore, not within the scope of Good Laboratory Practice Guidelines.
(§2) Mice were treated by intravaginal administration twice daily at ˜12 hour intervals administered on Days 1 through 4. Mice were treated intraperitoneally three times on Day 1 at ˜4 hour intervals, and twice daily at ˜12 hour intervals administered on days 2 through 4.
(§3) Dosing volumes were 0.1 mL/mouse (intravaginal), 0.1 mL/mouse (intraperitoneal), and 20 μL/rabbit. The study lasted 5 days, with day 1 the first day of dose administration.
(§4) The dose formulations were supplied in pyrogen-free saline.

[3] = tested on: Staphylococcus aureus (ATCC 6538); assay: MIC / log kill assay, FDA 510(k) stand-alone procedure; assay type: cell-based; settings: for log kill: 12.5 μg/ml
Experimental: (§5) The supernatant was discarded and the wash repeated.
(§6) The tube was inverted to dissolve the polypeptide. […] Solutions were used immediately or stored at −20° C.
(§7) The purpose of this experiment was to determine whether additives such as surfactants (pluronic) and chelating agents (EDTA) would effect L-IND activity. The concentrations selected for each organism tested ( S. aureus and P. aeruginosa) were based on the L-IND MIC for that organism. A lower concentration was also selected to determine whether the additives enhanced the antimicrobial activity of L-IND. Concentrations of L-IND ranged from 3.12 to 50 μg/ml. The concentration of sodium phosphate (SP) buffer was also examined and ranged from 1 to 10 mM.
(§8) A full factorial experimental design was used with 5 factors at 2 levels: 1) Exposure time (1 hr, 4hr); 2) SP buffer concentration, pH 7.4 (1 mM, 10 mM); 3) Surfactant concentration (0.25 wt %, 0.5 wt %); 4) EDTA concentration (0.1 wt %, 0.2 wt %); and 5) L-IND concentration (MIC and lower).
(§9) As described in the MIC procedure (Example 10), cultures were exposed to solutions containing various combinations of the above components for 1 or 4 hr at room temperature. Appropriate controls were conducted to evaluate the effects of individual components. Each replicate (assay done in triplicate) was then diluted 10-fold in NaCl and plated onto Mueller-Hinton agar. Colonies were then counted and log kill, effects of each additive, SP buffer concentration, and length of exposure on L-IND activity were examined. […]

[4] = tested on: Pseudomonas aeruginosa (ATCC 9027); assay: as above; assay type: cell-based
Experimental: as §5, §6, §7, §8, §9

[5] = Toxicity study, intravaginal administration
Experimental: as §1, §2, §3, §4

**Q.** Which survival [1] does the source give for `CC[C@H](C)[C@H](N)C(=O)N[C@@H](CC(C)C)C(=O)N1CCC[C@H]1C(=O)N[C@@H](Cc1c[nH]c2ccccc12)C(=O)N[C@@H](CCCCN)C(=O)N[C@@H](Cc1c[nH]c2ccccc12)C(=O)N1CCC[C@H]1C(=O)N[C@@H](Cc1c[nH]c2ccccc12)C(=O)N[C@@H](Cc1c[nH]c2ccccc12)C(=O)N1CCC[C@H]1C(=O)N[C@@H](Cc1c[nH]c2ccccc12)C(=O)N[C@@H](CCCNC(=N)N)C(=O)N[C@@H](CCCNC(=N)N)C(N)=O` [L-indolicidin, H2N-ILPWKWPWWPWRR-CONH2] here?
**A.** 15%

**Q.** What about the log kill (S. aureus ATCC 6538; 10 mM SP pH 7.4, over 8 months) of the same molecule?
**A.** ~4 log

**Q.** And the log kill (S. aureus ATCC 6538; 10 mM SP with 0.85% NaCl, over 8 months)?
**A.** ~1 log

**Q.** And the stability (S. aureus ATCC 6538; 10 mM SP with NaCl)?
**A.** 100%

**Q.** And the stability (S. aureus ATCC 6538; 10 mM SP)?
**A.** 100%

**Q.** And the gross alterations ([2]; 0.1 mL/mouse at 10, 100 or 1000 μg/mL, BPN-A-amide at 30, 300 or 3000 μg/mL)?
**A.** no gross alternations

**Q.** And the “deaths or clinical signs of toxicity” value ([2]; L-indolicidin 10, 100 or 1000 μg/mL, D-indolicidin 10 or 1000 μ/mL, All-Phe-indolicidin 10 μg/mL, BPN-A-amide 30, 300 or 3000 μg/mL)?
**A.** no deaths or biologically significant clinical signs of toxicity

**Q.** What about the log kill ([3]; 1 mM SP buffer, pluronic and EDTA at either concentration) of the same molecule?
**A.** 6 log

**Q.** And the log kill ([3]; 10 mM SP, without pluronic)?
**A.** 6 log

**Q.** And the “effect of EDTA on activity” value ([3]; 10 mM SP, EDTA 0.1 or 0.2 wt %)?
**A.** no effect

**Q.** What about the inhibition in kill ([3]; 0.5 wt % pluronic, SP at 5 mM) of the same molecule?
**A.** approximately 4 log

**Q.** What about the inhibition in kill ([3]; 32 μ/ml, pluronic and 10 mM SP buffer) of the same molecule?
**A.** > 3 log

**Q.** And the “effect of pluronic on activity” value ([3]; lower SP concentrations (1, 2.5 mM))?
**A.** no effect in activity

**Q.** And the “effect of pluronic on activity” value ([4]; 32 μ/ml, 0.25 wt % pluronic, either SP buffer concentration)?
**A.** No effect

**Q.** What about the inhibition in kill ([4]; pluronic in 1 mM SP buffer, 32 and 16 μg/ml, 4 hr) of the same molecule?
**A.** ~3 log

**Q.** What about the “Tissues from the reproductive tract (histology)” value ([5]; 0.1 mL/mouse at 10, 100 or 1000 μg/mL, BPN-A-amide at 30, 300 or 300 μ/mL) of the same molecule?
**A.** within normal limits

**Q.** What about the “deaths or clinical signs of toxicity” value ([5]; 10, 100 or 1000 μg/mL, BPN-A-amide 30, 300 or 3000 μg/mL) of the same molecule?
**A.** No deaths or biologically significant clinical signs of toxicity
